≈ marks a conversion by molar mass, not a printed value.
Experiments:
Botrytis cinerea = experiment: Antifungal activity against Botrytis cinerea assessed as inhibition of mycelia growth incubated for 48 hrs; assay type: functional, organism-based
Sclerotinia sclerotiorum = experiment: Antifungal activity against Sclerotinia sclerotiorum assessed as inhibition of mycelia growth incubated for 48 hrs; assay type: functional, organism-based

SMILES: CSc1nc(-c2ccccc2)cc(-c2nc3ccccc3[nH]2)n1
- EC50 (Botrytis cinerea): 0.15 µg/mL (≈ 0.471 µM)
- EC50 (Sclerotinia sclerotiorum): 45 µg/mL (≈ 141 µM)

SMILES: c1ccc(CSc2nc(-c3ccccc3)cc(-c3nc4ccccc4[nH]3)n2)cc1
- EC50 (Botrytis cinerea): 7.02 µg/mL (≈ 17.8 µM)
- EC50 (Sclerotinia sclerotiorum): 8.95 µg/mL (≈ 22.7 µM)

SMILES: CSc1nc(-c2ccc(Cl)cc2)cc(-c2nc3ccccc3[nH]2)n1
- EC50 (Botrytis cinerea): 1.15 µg/mL (≈ 3.26 µM)
- EC50 (Sclerotinia sclerotiorum): 17.3 µg/mL (≈ 49 µM)

SMILES: Fc1ccc(-c2cc(-c3nc4ccccc4[nH]3)nc(SCc3ccccc3)n2)cc1
- EC50 (Botrytis cinerea): 0.14 µg/mL (≈ 0.339 µM)
- EC50 (Sclerotinia sclerotiorum): 4.65 µg/mL (≈ 11.3 µM)

SMILES: CSc1nc(-c2ccc(F)cc2)cc(-c2nc3ccccc3[nH]2)n1
- EC50 (Botrytis cinerea): 0.95 µg/mL (≈ 2.82 µM)
- EC50 (Sclerotinia sclerotiorum): 16.6 µg/mL (≈ 49.5 µM)

SMILES: Clc1ccc(-c2cc(-c3nc4ccccc4[nH]3)nc(SCc3ccccc3)n2)cc1
- EC50 (Botrytis cinerea): 0.2 µg/mL (≈ 0.466 µM)
- EC50 (Sclerotinia sclerotiorum): 14 µg/mL (≈ 32.6 µM)

SMILES: COC(=O)Nc1nc2ccccc2[nH]1 [CARBENDAZIM]
- EC50 (Botrytis cinerea): 0.21 µg/mL (≈ 1.1 µM)
- EC50 (Sclerotinia sclerotiorum): 13.3 µg/mL (≈ 69.7 µM)

SMILES: CCCCSc1nc(-c2ccc(OC)cc2)cc(-c2nc3ccccc3[nH]2)n1
- EC50 (Botrytis cinerea): 2.45 µg/mL (≈ 6.27 µM)
- EC50 (Sclerotinia sclerotiorum): 16.4 µg/mL (≈ 41.9 µM)

SMILES: CCCCSc1nc(-c2ccccc2)cc(-c2nc3ccccc3[nH]2)n1
- EC50 (Botrytis cinerea): 0.34 µg/mL (≈ 0.943 µM)
- EC50 (Sclerotinia sclerotiorum): 22.3 µg/mL (≈ 61.9 µM)

SMILES: COc1ccc(-c2cc(-c3nc4ccccc4[nH]3)nc(SC)n2)cc1
- EC50 (Botrytis cinerea): 0.41 µg/mL (≈ 1.18 µM)
- EC50 (Sclerotinia sclerotiorum): 23.5 µg/mL (≈ 67.4 µM)

SMILES: CCCCSc1nc(-c2ccc(Cl)cc2)cc(-c2nc3ccccc3[nH]2)n1
- EC50 (Botrytis cinerea): 10.1 µg/mL (≈ 25.6 µM)
- EC50 (Sclerotinia sclerotiorum): 20.6 µg/mL (≈ 52.1 µM)

SMILES: CCCCSc1nc(-c2ccc(F)cc2)cc(-c2nc3ccccc3[nH]2)n1
- EC50 (Botrytis cinerea): 0.16 µg/mL (≈ 0.423 µM)
- EC50 (Sclerotinia sclerotiorum): 6.72 µg/mL (≈ 17.8 µM)

SMILES: COc1ccc(-c2cc(-c3nc4ccccc4[nH]3)nc(SCc3ccccc3)n2)cc1
- EC50 (Botrytis cinerea): 0.28 µg/mL (≈ 0.66 µM)
- EC50 (Sclerotinia sclerotiorum): 10.2 µg/mL (≈ 24 µM)

Source: ChEMBL document CHEMBL4834463, “Synthesis and fungicidal activity of novel 2-(2-alkylthio-6-phenylpyrimidin-4-yl)-1H-benzimidazoles” (Bioorg Med Chem Lett, 2021)
